According to article PMC8617976, “Inhibitory Potential of New Phenolic Hydrazide-Hydrazones with a Decoy Substrate Fragment towards Laccase from a Phytopathogenic Fungus: SAR and Molecular Docking Studies” (International Journal of Molecular Sciences, 2021):

Key:
[1] = molecular target: T1, laccase from Trametes versicolor; experiment: syringaldazine oxidation at […] nm, Lineweaver-Burk; assay type: biochemical; conditions: McIlvaine buffer pH 5.3, 25 °C, 30 min preincubation, methanol co-solvent
T1 construct: gene LCC2; PDB 1GYC (laccase 2) used for docking only

[2] = molecular target: T1, laccase from Trametes versicolor; experiment: syringaldazine oxidation at […] nm, Lineweaver-Burk; assay type: biochemical; conditions: McIlvaine buffer pH 5.3, 25 °C, 30 min preincubation, methanol co-solvent, printed as not active up to 1000 µM, type not determined
[3] = mixed type, non-competitive component

O=C(N/N=C/c1cccc(-c2ccccc2)c1O)c1cccc(O)c1 [4n, 3-Hydroxy-N’-[(E)-(2-hydroxy-3-phenyl-phenyl)methylidene]benzohydrazide]
Ki [1, 3]: 139 µM

Cc1cc(/C=N/NC(=O)Cc2ccc(O)cc2)c(O)c(C(C)(C)C)c1 [3b, 2-(4-Hydroxyphenyl)-N’-[(E)-(3-tert-butyl-2-hydroxy-5-methylphenyl)methylidene]acetohydrazide]
Ki ([1]; uncompetitive, text b18 prints 49.1): 49.2 µM

CC(C)(C)c1cc(/C=N/NC(=O)c2ccc3ccccc3c2O)c(O)c(C(C)(C)C)c1 [5c, N’-[(E)-(3,5-di-tert-butyl-2-hydroxy-phenyl)methylidene]-2-(1-hydroxynaphtho)hydrazide monomethanolate]
Ki ([1]; non-competitive): 16.2 µM

O=C(N/N=C/c1cccc(-c2ccccc2)c1O)c1cc(O)cc(O)c1 [4o, 3,5-Dihydroxy-N’-[(E)-(2-hydroxy-3-phenyl-phenyl)methylidene]benzohydrazide]
Ki ([1]; non-competitive): 69.9 µM

O=C(N/N=C/c1cccc(-c2ccccc2)c1O)c1ccc2ccccc2c1O [5b, N’-[(E)-(2-hydroxy-3-phenylphenyl)methylidene]-2-(1-hydroxynaphtho)hydrazide]
Ki [1, 3]: 24.3 µM

Cc1cc(/C=N/NC(=O)c2ccc3ccccc3c2O)c(O)c(C(C)(C)C)c1 [5a, N’-[(E)-(3-tert-butyl-2-hydroxy-5-methylphenyl)methylidene]-2-(1-hydroxynaphtho)hydrazide]
Ki [1, 3]: 8 µM

CC(=O)NN=Cc1cc(C)cc(C(C)(C)C)c1O (mixture of isomers) [3a, (E/Z)-N’-(3-tert-butyl-2-hydroxy-5-methyl-benzylidene)acetohydrazide]
KI [2]: > 1000 µM

CC(C)(C)c1cccc(/C=N/NC(=O)c2ccc3ccccc3c2O)c1O [5d, N’-[(E)-(3-tert-butyl-2-hydroxy-phenyl)methylidene]-2-(1-hydroxynaphtho)hydrazide]
Ki [1, 3]: 55.6 µM

O=C(N/N=C/c1cccc(-c2ccccc2)c1O)c1ccccc1O [4m, 2-Hydroxy-N’-[(E)-(2-hydroxy-3-phenyl-phenyl)methylidene]benzohydrazide]
Ki ([1]; mixed type, competitive component): 26.4 µM

Cc1cc(/C=N/NC(=O)c2ccccc2)c(O)c(C(C)(C)C)c1 [4b, N’-[(E)-(3-tert-butyl-2-hydroxy-5-methylphenyl)methylidene]benzohydrazide]
Ki ([1]; competitive): 82 µM

COc1ccc(C(=O)N/N=C/c2cc(C)cc(C(C)(C)C)c2O)cc1 [4d, 4-Methoxy-N’-[(E)-(3-tert-butyl-2-hydroxy-5-methylphenyl)methylidene]benzohydrazide]
Ki ([1]; competitive): 25.8 µM

CC(C)(C)c1cc(/C=N/NC(=O)c2cccc(O)c2)c(O)c(C(C)(C)C)c1 [4h, 3-Hydroxy-N’-[(E)-(3,5-di-tert-butyl-2-hydroxyphenyl)methylidene]benzohydrazide]
Ki ([1]; competitive): 18.9 µM

Cc1cc(/C=N/NC(=O)c2ccccc2O)c(O)c(C(C)(C)C)c1 [4e, 2-Hydroxy-N’-[(E)-(3-tert-butyl-2-hydroxy-5-methylphenyl)methylidene]benzohydrazide]
Ki ([1]; uncompetitive): 150 µM

CC(C)(C)c1cc(/C=N/NC(=O)c2ccccc2O)c(O)c(C(C)(C)C)c1 [4g, 2-Hydroxy-N’-[(E)-(3,5-di-tert-butyl-2-hydroxyphenyl)methylidene]benzohydrazide]
Ki ([1]; non-competitive): 52.6 µM

CC(C)(C)c1cccc(/C=N/NC(=O)c2ccccc2O)c1O [4j, 2-Hydroxy-N’-[(E)-(3-tert-butyl-2-hydroxyphenyl)methylidene]benzohydrazide]
Ki ([1]; uncompetitive): 65.6 µM

COc1cccc(C(=O)N/N=C/c2cc(C)cc(C(C)(C)C)c2O)c1 [4c, 3-Methoxy-N’-[(E)-(3-tert-butyl-2-hydroxy-5-methylphenyl)methylidene]benzohydrazide]
Ki ([1]; non-competitive): 17.4 µM

Cc1cc(/C=N/NC(=O)c2cc(O)cc(O)c2)c(O)c(C(C)(C)C)c1 [4f, 3,5-Dihydroxy-N’-[(E)-(3-tert-butyl-2-hydroxy-5-methylphenyl)methylidene]benzohydrazide]
Ki ([1]; competitive): 32.3 µM

CC(C)(C)c1cc(/C=N/NC(=O)c2cc(O)cc(O)c2)c(O)c(C(C)(C)C)c1 [4i, 3,5-Dihydroxy-N’-[(E)-(3,5-di-tert-butyl-2-hydroxyphenyl)methylidene]benzohydrazide]
Ki ([1]; competitive): 55.6 µM

CC(C)(C)c1cccc(/C=N/NC(=O)c2cc(O)cc(O)c2)c1O [4l, 3,5-Dihydroxy-N’-[(E)-(3-tert-butyl-2-hydroxyphenyl)methylidene]benzohydrazide]
Ki ([1]; competitive): 38 µM

CC(C)(C)c1cccc(/C=N/NC(=O)c2cccc(O)c2)c1O [4k, 3-Hydroxy-N’-[(E)-(3-tert-butyl-2-hydroxyphenyl)methylidene]benzohydrazide]
Ki ([1]; competitive): 35.8 µM
